Drawing on patent US8580829B2 (Boehringer Ingelheim International GmbH, priority 2010, dated 2013), this text covers IC50 for 27 compounds.

The target in experiment [1] is T1, recombinant human FLAP protein (Homo sapiens, UniProt P20292).
T1 construct: made in house; host or cells: Sf9 insect cells (100,000 x g membrane fraction)
T1 sequence (P20292 1-161): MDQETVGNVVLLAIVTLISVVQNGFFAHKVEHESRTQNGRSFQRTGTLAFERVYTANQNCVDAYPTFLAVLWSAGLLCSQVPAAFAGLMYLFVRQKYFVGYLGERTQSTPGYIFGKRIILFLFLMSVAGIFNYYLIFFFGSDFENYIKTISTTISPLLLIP
As to the kind of experiment: FLAP binding assay (Scintillation Proximity Assay, displacement of [125I]L-691,831). As to conditions: recombinant human FLAP membranes, [125I]L-691,831 probe; read-out: FLAP SPA IC50. The gist of the method: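 WGA scintillation proximity beads were stirred 1 h with 5 μg of FLAP-containing membrane protein. The membranes came from baculovirus Sf9 cells, Dounce-lysed and spun to a 100,000×g pellet in buffer at pH 7.5.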

Experiment [2] relates to synthesis of LTB4 in human whole blood. The experiment in a line: human whole blood LTB4 production inhibition assay. The class given is cell-based. As to conditions: heparinized human whole blood, calcimycin 20 μM, read-out: hWB LTB4 IC50. An outline of the steps: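 LTB4 in plasma was quantified by HTRF immunoassay. Before that, compound-treated heparinized whole blood (15 min, 37 °C) received 20 μM final calcimycin for a further 30 min at 37 °C, followed by centrifugation at 1500×g.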

Where two headings read alike, the source gives them in different places.

In the case of `COc1cccc(-c2nc(C3(c4ccc(-c5cnc(N)nc5)cc4)CCC3)no2)c1` [Example 49, 5-(4-{1-[5-(3-Methoxy-phenyl)-1,2,4-oxadiazol-3-yl]-cyclobutyl}-phenyl)-pyrimidin-2-ylamine], the IC50 was determined as 3.7 nM in experiment [1] and 660 nM in experiment [2] (Homo sapiens).
For `Nc1ncc(-c2ccc(C3(c4noc(-c5cccc(Cl)c5)n4)CCC3)cc2)cn1` [Example 45, 5-(4-{1-[5-(3-Chloro-phenyl)-1,2,4-oxadiazol-3-yl]-cyclobutyl}-phenyl)-pyrimidin-2-ylamine], in that order: 7.9 nM and 950 nM.
With `COC(=O)[C@@H]1CN(c2cnc(-c3nc(C4(c5ccc(-c6cnc(N)nc6)cc5)CCC4)no3)cn2)CCN1` [Example 309, (S)-5′-(3-{1-[4-(2-Amino-pyrimidin-5-yl)-phenyl]-cyclobutyl}-1,2,4-oxadiazol-5-yl)-3,4,5,6-tetrahydro-2H-1,2′-bipyrazinyl-3-carboxylic acid methyl ester], the half-maximal inhibitory concentration (IC50) worked out at 5.7 nM in experiment [1] and 760 nM in experiment [2].
In the case of `Nc1ncc(-c2ccc(C3(c4noc(-c5cccnc5Cl)n4)CCC3)cc2)cn1` [Example 169, 5-(4-{1-[5-(2-Chloro-pyridin-3-yl)-1,2,4-oxadiazol-3-yl]-cyclobutyl}-phenyl)-pyrimidin-2-ylamine], the concentration for half-maximal inhibition (IC50) in experiment [1] is 2.1 nM; in experiment [2] (Homo sapiens), 130 nM.
Consider `CCOC(=O)CNc1cnc(-c2nc(C3(c4ccc(-c5cnc(N)nc5)cc4)CCC3)no2)cn1` [Example 199, [5-(3-{1-[4-(2-Amino-pyrimidin-5-yl)-phenyl]-cyclobutyl}-1,2,4-oxadiazol-5-yl)-pyrazin-2-ylamino]-acetic acid ethyl ester], for which the values for the IC50 in experiment [1] and in experiment [2] (Homo sapiens) were 1 nM and 42 nM, respectively.
For `Nc1ncc(-c2ccc(C3(c4noc(-c5ccnc(Cl)c5)n4)CCC3)cc2)cn1` [Example 56, 5-(4-{1-[5-(2-Chloro-pyridin-4-yl)-1,2,4-oxadiazol-3-yl]-cyclobutyl}-phenyl)-pyrimidin-2-ylamine], in that order: 8.4 nM and 990 nM.
The corresponding values for `CC(C)(C)c1ccc(-c2nc(C3(c4ccc(-c5cnc(N)nc5)cc4)CCC3)no2)cc1` [Example 54, 5-(4-{1-[5-(4-tert-Butyl-phenyl)-1,2,4-oxadiazol-3-yl]-cyclobutyl}-phenyl)-pyrimidin-2-ylamine] are 15 nM and 1200 nM.
The corresponding values for `Cn1cc(-c2nc(C3(c4ccc(-c5cnc(N)c(CO)c5)cc4)CCC3)no2)cn1` [Example 274, [2-Amino-5-(4-{1-[5-(1-methyl-1H-pyrazol-4-yl)-[1,2,4]oxadiazol-3-yl]-cyclobutyl}-phenyl)-pyridin-3-yl]-methanol] are 8.8 nM and 220 nM.
Consider `COc1ccc(-c2nc(C3(c4ccc(-c5cnc(N)nc5)cc4)CCC3)no2)cc1` [Example 48, 5-(4-{1-[5-(4-Methoxy-phenyl)-1,2,4-oxadiazol-3-yl]-cyclobutyl}-phenyl)-pyrimidin-2-ylamine], for which the IC50 in experiment [1] amounted to 2.5 nM; in experiment [2] (Homo sapiens), 430 nM.
For `Nc1ncc(-c2ccc(C3(c4noc(-c5nc[nH]n5)n4)CCC3)cc2)cn1` [Example 96, 5-(4-{1-[5-(1H-1,2,4-Triazol-3-yl)-1,2,4-oxadiazol-3-yl]-cyclobutyl}-phenyl)-pyrimidin-2-ylamine], in that order: 13 nM and 2700 nM.
The corresponding values for `Nc1ncc(-c2ccc(C3(c4noc(-c5ccc(S(N)(=O)=O)cc5)n4)CCC3)cc2)cn1` [Example 38, 4-(3-{1-[4-(2-Amino-pyrimidin-5-yl)-phenyl]-cyclobutyl}-1,2,4-oxadiazol-5-yl)-benzenesulfonamide] are 2.4 nM and over 5000 nM.
For `Nc1ncc(-c2ccc(C3(c4noc(-c5ccc(F)cc5)n4)CCC3)cc2)cn1` [Example 51, 5-(4-{1-[5-(4-Fluoro-phenyl)-1,2,4-oxadiazol-3-yl]-cyclobutyl}-phenyl)-pyrimidin-2-ylamine], in that order: 7 nM and 1000 nM.
With `Nc1ncc(-c2ccc(C3(c4noc(-c5ccc(C(=O)N6CCC(F)(F)C6)nc5)n4)CCC3)cc2)cn1` [Example 75, [5-(3-{1-[4-(2-Amino-pyrimidin-5-yl)-phenyl]-cyclobutyl}-1,2,4-oxadiazol-5-yl)-pyridin-2-yl]-(3,3-difluoro-pyrrolidin-1-yl)-methanone], the figures for the IC50 in experiment [1] and in experiment [2] (Homo sapiens) were 3.5 nM and 190 nM, respectively.
As for `Nc1ncc(-c2ccc(C3(c4noc(-c5ccccc5)n4)CCOCC3)cc2)cn1` [Example 149, 5-{4-[4-(5-Phenyl-1,2,4-oxadiazol-3-yl)-tetrahydro-pyran-yl]-phenyl}-pyrimidin-2-ylamine], the half-inhibitory concentration (IC50) was 15 nM in experiment [1] and over 5000 nM in experiment [2] (Homo sapiens).
For `CNc1ncc(-c2ccc(C3(c4noc(-c5cnn(CC(=O)N(C)C)c5)n4)CCC3)cc2)cn1` [Example 276, N,N-Dimethyl-2-[4-(3-{1-[4-(2-methylamino-pyrimidin-5-yl)-phenyl]-cyclobutyl}-[1,2,4]oxadiazol-5-yl)-pyrazol-1-yl]-acetamide], in that order: 7 nM and 110 nM.
The corresponding values for `CO[C@@H]1CCN(C(=O)Cn2cc(-c3nc(C4(c5ccc(-c6cnc(N)nc6)cc5)CCC4)no3)cn2)C1` [Example 256, 2-[4-(3-{1-[4-(2-Amino-pyrimidin-5-yl)-phenyl]-cyclobutyl}-[1,2,4]oxadiazol-5-yl)-pyrazol-1-yl]-1-((R)-3-methoxy-pyrrolidin-1-yl)-ethanone] are 22 nM and 220 nM.
The corresponding values for `Nc1ncc(-c2ccc(C3(c4noc(-c5cccnc5N5CCOCC5)n4)CCC3)cc2)cn1` [Example 179, 5-(4-{1-[5-(2-Morpholin-4-yl-pyridin-3-yl)-1,2,4-oxadiazol-3-yl]-cyclobutyl}-phenyl)-pyrimidin-2-ylamine] are 12 nM and 1400 nM.
Take `CCn1cnc(-c2nc(C3(c4ccc(-c5cnc(N)nc5)cc4)CCC3)no2)c1` [Example 87, 5-(4-{1-[5-(1-Ethyl-1H-imidazol-4-yl)-1,2,4-oxadiazol-3-yl]-cyclobutyl}-phenyl)-pyrimidin-2-ylamine]: the IC50 in experiment [1] was found to be 4.5 nM; in experiment [2] (Homo sapiens), 150 nM.
The corresponding values for `Cn1cnc(-c2nc(C3(c4ccc(-c5ccc(N)nc5)cc4)CCC3)no2)c1` [Example 305, 5-(4-{1-[5-(1-Methyl-1H-imidazol-4-yl)-[1,2,4]oxadiazol-3-yl]-cyclobutyl}-phenyl)-pyridin-2-ylamine] are 15 nM and 120 nM.
For `Cc1cc(-c2nc(C3(c4ccc(-c5cnc(N)nc5)cc4)CCC3)no2)on1` [Example 157], in that order: 4.1 nM and 690 nM.
In the case of `CNc1cnc(-c2nc(C3(c4ccc(-c5cnc(N)nc5)cc4)CCC3)no2)cn1` [Example 196, 5-(4-{1-[5-(5-Methylamino-pyrazin-2-yl)-1,2,4-oxadiazol-3-yl]-cyclobutyl}-phenyl)-pyrimidin-2-ylamine], the IC50 worked out at 2.1 nM in experiment [1] and 24 nM in experiment [2] (Homo sapiens).
The corresponding values for `Nc1ncc(-c2ccc(C3(c4noc([C@H]5CCCCN5)n4)CCC3)cc2)cn1` [Example 282, 5-{4-[1-((R)-5-Piperidin-2-yl-[1,2,4]oxadiazol-3-yl)-cyclobutyl]-phenyl}-pyrimidin-2-ylamine] are 26 nM and 1100 nM.
For `CC(O)CNc1cnc(-c2nc(C3(c4ccc(-c5cnc(N)nc5)cc4)CCC3)no2)cn1` (stereo not drawn) [Example 200, 1-[5-(3-{1-[4-(2-Amino-pyrimidin-5-yl)-phenyl]-cyclobutyl}-1,2,4-oxadiazol-5-yl)-pyrazin-2-ylamino]-propan-2-ol], in that order: 1.5 nM and 67 nM.
The corresponding values for `CC(C)N(C)C(=O)Cn1cc(-c2nc(C3(c4ccc(-c5cnc(N)nc5)cc4)CCC3)no2)cn1` [Example 139, 2-[4-(3-{1-[4-(2-Amino-pyrimidin-5-yl)-phenyl]-cyclobutyl}-1,2,4-oxadiazol-5-yl)-pyrazol-1-yl]-N-isopropyl-N-methyl-acetamide] are 2.6 nM and 95 nM.
With `Cc1ccc(-c2nc(C3(c4ccc(-c5cnc(N)nc5)cc4)CCC3)no2)c(=O)[nH]1` [Example 192, 3-(3-{1-[4-(2-Amino-pyrimidin-5-yl)-phenyl]-cyclobutyl}-1,2,4-oxadiazol-5-yl)-6-methyl-1H-pyridin-2-one], the IC50 in experiment [1] is 1.7 nM; in experiment [2] (Homo sapiens) it was over 5000 nM.
The corresponding values for `Nc1ncc(-c2ccc(C3(c4noc(-c5ccnnc5)n4)CCC3)cc2)cn1` [Example 160, 5-{4-[1-(5-Pyridazin-4-yl-1,2,4-oxadiazol-3-yl)-cyclobutyl]-phenyl}-pyrimidin-2-ylamine] are 6.2 nM and 240 nM.
For `CN(C)C(=O)Cn1cnc(-c2nc(C3(c4ccc(-c5cnc(N)nc5)cc4)CCC3)no2)c1` [Example 251, 2-[4-(3-{1-[4-(2-Amino-pyrimidin-5-yl)-phenyl]-cyclobutyl}-[1,2,4]oxadiazol-5-yl)-imidazol-1-yl]-N,N-dimethyl-acetamide], in that order: 36 nM and 2200 nM.
